{
  "source": "paper PMC6930638",
  "about": "“The Masked Polar Group Incorporation (MPGI) Strategy in Drug Design: Effects of Nitrogen Substitutions on Combretastatin and Isocombretastatin Tubulin Inhibitors” (Molecules, 2019)",
  "key": {"[1]": {"system": "MCF-7 breast adenocarcinoma", "assay": "MTT cell antiproliferative assay, MCF-7", "format": "cell-based", "conditions": "Homo sapiens, MCF7, 72 h"}, "[2]": {"system": "HeLa, HT-29 and MCF-7 human tumor cell lines", "assay": "Antiproliferative activity over the three human tumor cell lines (MTT)", "format": "cell-based", "conditions": "Homo sapiens, range over the cell lines, Table S1; read-out: Cytotoxicity range (range of antiproliferative IC50 values)"}, "[3]": {"assay": "Aqueous solubility determination (shake flask, UV)", "format": "physicochemical", "conditions": "phosphate buffer, pH 7, aqueous buffer, thermodynamic from solid, phosphate buffer pH 7.0, 48 h stirring, filtered, UV; read-out: Solub.", "experimental": "One of the expected effects of introducing nitrogen substitutions on combretastatin and isocombretastatin analogues, is an increase in aqueous solubility. Solubility was spectrophotometrically determined in phosphate buffer at pH 7. UV absorbance of soluble compounds was measured after shaking and microfiltration. […] In addition, aqueous solubilities of the corresponding ammonium salts are over 1 mg/mL.\nThis great improvement is probably due to the symmetry reduction, combined with an increased polarity for 2g.\nCompounds were stirred in a solution of phosphate buffer at pH 7.0 (1–2 mg of compound in 300 µL of buffer) during 48 h. After that, the samples were filtered over a […] filter to discard the insoluble residues. In order to determine the maximum wavelength of absorbance for each compound, a scan between 270 and 400 nm was performed. Once the wavelength was selected, a calibration line was performed and the concentration of the stirred and filtered samples was measured."}, "[4]": {"system": "HeLa cervix epithelioid carcinoma", "assay": "MTT cell antiproliferative assay, HeLa", "format": "cell-based", "conditions": "Homo sapiens, 72 h"}},
  "data": [
    {"smiles": "COc1cc(C(=O)c2cccc(N(C)C)c2)cc(OC)c1OC", "note": "[Compound 1f, (3-(Dimethylamino)phenyl)(3,4,5-trimethoxyphenyl)methanone]", "values": [
      {"measurement": "IC50", "setting": "[1]", "value": 320, "unit": "nM"},
      {"measurement": "IC50", "setting": "[2]", "value": "180 to 460", "unit": "nM"},
      {"measurement": "solubility at 48 h", "setting": "[3]", "value": 11, "unit": "µg/mL"},
      {"measurement": "IC50", "setting": "[4]", "value": 180, "unit": "nM"}
    ]},
    {"smiles": "COc1cc(C(=O)c2ccnc(N3CCCC3)c2)cc(OC)c1OC", "note": "[Compound 1h, (2-(Pyrrolidin-1-yl)pyridin-4-yl)(3,4,5-trimethoxyphenyl)methanone]", "values": [
      {"measurement": "IC50", "setting": "[1]", "value": 17, "unit": "nM"},
      {"measurement": "IC50", "setting": "[2]", "value": "17 to 71", "unit": "nM"},
      {"measurement": "solubility at 48 h", "setting": "[3]", "value": 20, "unit": "µg/mL"},
      {"measurement": "IC50", "setting": "[4]", "value": 18, "unit": "nM"}
    ]},
    {"smiles": "C=C(c1ccc(N(C)C)nc1)c1cc(OC)c(OC)c(OC)c1", "note": "[Compound 3b, N,N-Dimethyl-5-(1-(3,4,5-trimethoxyphenyl)vinyl)pyridin-2-amine]", "values": [
      {"measurement": "IC50", "setting": "[1]", "value": 81, "unit": "nM"},
      {"measurement": "IC50", "setting": "[2]", "value": "81 to 277", "unit": "nM"},
      {"measurement": "solubility at 48 h", "setting": "[3]", "value": 13.5, "unit": "µg/mL"},
      {"measurement": "IC50", "setting": "[4]", "value": 150, "unit": "nM"}
    ]},
    {"smiles": "COc1cc(C=Cc2ccc(N(C)C)nc2)cc(OC)c1OC", "note": "[Compound 8b, N,N-dimethyl-5-(3,4,5-trimethoxystyryl)pyridin-2-amine]", "values": [
      {"measurement": "IC50", "setting": "[1]", "value": 63, "unit": "nM"},
      {"measurement": "IC50", "setting": "[2]", "value": "57 to 80", "unit": "nM"},
      {"measurement": "solubility at 48 h", "setting": "[3]", "value": 44, "unit": "µg/mL"},
      {"measurement": "IC50", "setting": "[4]", "value": 57, "unit": "nM"}
    ]}
  ]
}
